Measured values: patent US20230286970A1, “NOVEL OXADIAZOLE-BASED SELECTIVE HDAC6 INHIBITORS” (ITALFARMACO S.P.A., priority 2020, published 2023)

Columns and labels:
recombinant human HDAC6 = recombinant human HDAC6 (Homo sapiens (Human), UniProt Q9UBN7); test: Enzymatic screening, HDAC6 inhibition (fluorogenic FdL_G substrate); assay type: biochemical
Summary of the method: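 Enzyme was preincubated with compound (8 doses, triplicate, 1% DMSO) in 25 mM Tris-HCl pH 8, 130 mM NaCl, 0.05% Tween-20, 10% glycerol, with BSA. A FLUOR DE LYS-Green substrate was then added, and fluorescence was read after developer plus 2 μM TSA.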

recombinant human HDAC1 = recombinant human HDAC1 (Homo sapiens (Human), UniProt Q13547); test: Enzymatic screening, HDAC1 inhibition (fluorogenic FdL_G substrate); assay type: biochemical
Summary of the method: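 Recombinant human HDAC1 inhibition was measured fluorometrically using the FLUOR DE LYS-Green (FdL_G) substrate. Compounds at 8 doses (1% DMSO final) in Tris-HCl pH 8 buffer with NaCl, Tween-20 and glycerol were preincubated in triplicate with enzyme and 1 mg/mL BSA, then given substrate. Developer I plus 2 μM TSA was added, and fluorescence read after 25 minutes in the dark.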

Stability in rat plasma = conditions: after 4 hours, 37° C.
[1] = Stability in human plasma; conditions: after 4 hours, 37° C.
Procedure: In order to evaluate the stability to circulating enzymes, test compounds were incubated in human and rat plasma at 37° C. in a thermostated oscillating bath. Each test compound was incubated at μM concentration (50 μM when the samples were analysed by UV/HPLC, 1 or 2 μM when the samples were analysed by LC-MS/MS) for 0, 15, 30 minutes and 1, 2 and 4 hours. The reaction was stopped placing samples on ice bath and adding acidified acetonitrile. After centrifugation (10 minutes at 14000 rpm) an aliquot of the supernatant was diluted with water, filtered with 0.45 μm regenerated cellulose syringe filters and injected in HPLC-UV or in LC-MS/MS. The percentage of the remaining amount at the various incubation times with respect to the initial amount were calculated. The half-life in plasma was also calculated.

[2] = Stability to Phase I metabolism in rat S9 liver fraction; conditions: after 90 minutes, 37° C.
[3] = Stability to Phase I metabolism in human S9 liver fraction; conditions: after 90 minutes, 37° C.

recombinant human HDAC1, sequence (Q13547 whole entry): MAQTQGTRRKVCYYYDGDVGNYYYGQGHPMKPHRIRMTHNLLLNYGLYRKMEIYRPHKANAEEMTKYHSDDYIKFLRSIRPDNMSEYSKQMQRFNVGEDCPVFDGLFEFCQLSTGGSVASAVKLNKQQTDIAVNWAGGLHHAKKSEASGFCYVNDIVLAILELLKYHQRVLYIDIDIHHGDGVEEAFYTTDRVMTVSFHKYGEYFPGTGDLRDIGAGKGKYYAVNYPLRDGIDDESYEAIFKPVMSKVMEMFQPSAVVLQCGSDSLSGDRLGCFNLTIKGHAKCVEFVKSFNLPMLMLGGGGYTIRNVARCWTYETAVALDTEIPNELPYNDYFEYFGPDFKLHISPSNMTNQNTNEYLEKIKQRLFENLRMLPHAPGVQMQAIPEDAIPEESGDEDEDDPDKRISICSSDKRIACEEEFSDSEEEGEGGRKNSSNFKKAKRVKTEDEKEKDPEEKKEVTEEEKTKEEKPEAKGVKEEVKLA
recombinant human HDAC6, sequence (Q9UBN7 whole entry): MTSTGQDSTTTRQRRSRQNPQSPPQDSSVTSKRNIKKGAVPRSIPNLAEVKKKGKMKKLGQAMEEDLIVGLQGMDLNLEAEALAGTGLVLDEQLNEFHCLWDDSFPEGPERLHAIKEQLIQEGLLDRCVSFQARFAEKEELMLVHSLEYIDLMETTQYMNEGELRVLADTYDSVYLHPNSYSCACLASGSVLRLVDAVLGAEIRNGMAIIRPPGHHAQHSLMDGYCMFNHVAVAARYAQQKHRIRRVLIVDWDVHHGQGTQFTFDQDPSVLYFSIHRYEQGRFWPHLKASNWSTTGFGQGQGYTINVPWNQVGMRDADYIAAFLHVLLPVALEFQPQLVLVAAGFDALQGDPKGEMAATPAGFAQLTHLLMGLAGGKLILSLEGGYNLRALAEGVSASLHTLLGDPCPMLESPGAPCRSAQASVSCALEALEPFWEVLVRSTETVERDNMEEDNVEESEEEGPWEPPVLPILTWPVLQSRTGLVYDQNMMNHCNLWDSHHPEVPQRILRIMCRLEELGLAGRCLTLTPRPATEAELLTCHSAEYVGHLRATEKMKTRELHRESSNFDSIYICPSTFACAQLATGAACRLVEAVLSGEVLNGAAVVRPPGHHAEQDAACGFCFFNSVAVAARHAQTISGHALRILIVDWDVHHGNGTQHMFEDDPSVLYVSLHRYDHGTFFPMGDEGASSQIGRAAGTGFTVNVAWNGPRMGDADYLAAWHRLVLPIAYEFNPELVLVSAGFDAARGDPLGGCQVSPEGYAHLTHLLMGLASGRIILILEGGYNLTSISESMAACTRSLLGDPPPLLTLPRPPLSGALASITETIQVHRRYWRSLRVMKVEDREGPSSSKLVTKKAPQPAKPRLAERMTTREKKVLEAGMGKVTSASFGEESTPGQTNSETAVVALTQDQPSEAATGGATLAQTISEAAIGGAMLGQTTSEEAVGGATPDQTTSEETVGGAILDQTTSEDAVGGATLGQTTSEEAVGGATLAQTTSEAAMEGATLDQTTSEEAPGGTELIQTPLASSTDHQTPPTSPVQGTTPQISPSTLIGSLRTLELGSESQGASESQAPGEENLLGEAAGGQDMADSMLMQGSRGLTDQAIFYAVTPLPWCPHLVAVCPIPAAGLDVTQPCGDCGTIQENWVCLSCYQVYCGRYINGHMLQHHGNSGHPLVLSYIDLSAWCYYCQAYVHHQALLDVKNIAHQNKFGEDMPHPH

Row | Structure (SMILES) | IC50 (recombinant human HDAC6) [nM] | IC50 (recombinant human HDAC1) [nM] | residual percentage in RAT PLASMA (Stability in rat plasma) [%] | residual percentage in HUMAN PLASMA [1] [%] | residual percentage in RAT S9 FRACTION [2] [%] | residual percentage in HUMAN S9 FRACTION [3] [%]
1 | NC(=O)c1cccc(-c2nnn(Cc3ccc(-c4nnc(C(F)F)o4)cc3)n2)c1 [compound 75, 3-(2-(4-(5-(difluoromethyl)-1,3,4-oxadiazol-2-yl)benzyl)-2H-tetrazol-5-yl)benzamide] | 32 | > 200000 | 76 | 96 | 90 | 85
2 | Nc1nc2ccc(-c3cn(Cc4ccc(-c5nnc(C(F)F)o5)cn4)nn3)cc2[nH]1 [Compd. 30, 6-(1-((5-(5-(difluoromethyl)-1,3,4-oxadiazol-2-yl)pyridin-2-yl)methyl)-1H-1,2,3-triazol-4-yl)-1H-benzo[d]imidazol-2-amine] | 10 | > 200000 | 68 | 87 | 96 | 80
3 | FC(F)c1nnc(-c2ccc(Cn3cc(-c4ccc(NC5=NCCN5)cc4)cn3)cc2)o1 [compound 269, N-(4-(1-(4-(5-(difluoromethyl)-1,3,4-oxadiazol-2-yl)benzyl)-1H-pyrazol-4-yl)phenyl)-4,5-dihydro-1H-imidazol-2-amine] | 15 | > 200000 | 71 | 80 | 69 | 81
4 | C[C@H](c1ccc(-c2nnc(C(F)F)o2)cc1)n1cc(-c2ccc(N)nc2)nn1 [compound 106, (R)-5-(1-(1-(4-(5-(difluoromethyl)-1,3,4-oxadiazol-2-yl)phenyl)ethyl)-1H-1,2,3-triazol-4-yl)pyridin-2-amine] | – | – | 78 | 86 | 69 | 78
5 | COc1ncc(NCc2ccc(-c3cn(Cc4ccc(-c5nnc(C(F)F)o5)cc4)nn3)cc2)cc1C(N)=O [compound 138, 5-((4-(1-(4-(5-(difluoromethyl)-1,3,4-oxadiazol-2-yl)benzyl)-1H-1,2,3-triazol-4-yl)benzyl)amino)-2-methoxynicotinamide] | 54 | > 200000 | – | 92 | 66 | 70
6 | O=C(Nc1cccc(-c2cn(Cc3c(F)cc(-c4nnc(C(F)F)o4)cc3F)nn2)c1)N1CCOCC1 [compound 78, N-(3-(1-(4-(5-(difluoromethyl)-1,3,4-oxadiazol-2-yl)-2,6-difluorobenzyl)-1H-1,2,3-triazol-4-yl)phenyl)morpholine-4-carboxamide] | 32 | > 200000 | – | 62 | 78 | 94
7 | C[C@@H](c1ccc(-c2nnc(C(F)F)o2)cc1)n1cc(-c2ccc(N)nc2)nn1 [compound 255, (S)-5-(1-(1-(4-(5-(difluoromethyl)-1,3,4-oxadiazol-2-yl)phenyl)ethyl)-1H-1,2,3-triazol-4-yl)pyridin-2-amine] | – | – | 57 | 91 | 76 | 98
8 | O=C1NCc2ccc(-c3nnn(Cc4c(F)cc(-c5nnc(C(F)F)o5)cc4F)n3)cc21 [compound 57, 6-(2-(4-(5-(difluoromethyl)-1,3,4-oxadiazol-2-yl)-2,6-difluorobenzyl)-2H-tetrazol-5-yl)isoindolin-1-one] | – | – | 68 | 62 | 86 | 70
9 | CC(C)(C)OC(=O)N1CCc2[nH]c(-c3cccc(-c4nnn(Cc5ccc(-c6nnc(C(F)F)o6)cc5)n4)c3)nc2C1 [compound 272, tert-butyl 2-(3-(2-(4-(5-(difluoromethyl)-1,3,4-oxadiazol-2-yl)benzyl)-2H-tetrazol-5-yl)phenyl)-1,4,6,7-tetrahydro-5H-imidazo[4,5-c]pyridine-5-carboxylate] | 407 | > 200000 | – | – | – | –
10 | NCc1ccc(-c2cn(Cc3c(F)cc(-c4nnc(C(F)F)o4)cc3F)nn2)cn1 [compound 101, (5-(1-(4-(5-(difluoromethyl)-1,3,4-oxadiazol-2-yl)-2,6-difluorobenzyl)-1H-1,2,3-triazol-4-yl)pyridin-2-yl)methanamine] | 39 | > 200000 | – | – | – | –
11 | CN(Cc1ccncc1)Cc1ccc(-c2nc(Cc3c(F)cc(-c4nnc(C(F)F)o4)cc3F)no2)cc1 [compound 254, N-(4-(3-(4-(5-(difluoromethyl)-1,3,4-oxadiazol-2-yl)-2,6-difluorobenzyl)-1,2,4-oxadiazol-5-yl)benzyl)-N-methyl-1-(pyridin-4-yl)methanamine] | 361 | > 200000 | – | – | – | –
12 | O=C1NCc2ccc(-c3cn(Cc4ccc(-c5nnc(C(F)F)o5)cn4)cn3)cc21 [Compd. 292, 6-(1-((5-(5-(difluoromethyl)-1,3,4-oxadiazol-2-yl)pyridin-2-yl)methyl)-1H-imidazol-4-yl)isoindolin-1-one] | 30 | > 200000 | – | – | – | –
13 | Nc1ccc(-c2cn(C(Cc3ccc(Cl)cc3)c3ccc(-c4nnc(C(F)F)o4)cc3)nn2)cn1 (stereo not drawn) [Compd. 231, 5-(1-(2-(4-chlorophenyl)-1-(4-(5-(difluoromethyl)-1,3,4-oxadiazol-2-yl)phenyl)ethyl)-1H-1,2,3-triazol-4-yl)pyridin-2-amine] | 197 | > 200000 | – | – | – | –
14 | Nc1ccc(-c2noc(Cc3ccc(-c4nnc(C(F)F)o4)cc3)n2)cn1 [compound 135, 5-(5-(4-(5-(difluoromethyl)-1,3,4-oxadiazol-2-yl)benzyl)-1,2,4-oxadiazol-3-yl)pyridin-2-amine] | 53 | > 200000 | – | – | – | –
15 | Nc1ccc(-c2cn([C@@H](CN3CCCC3)c3ccc(-c4nnc(C(F)F)o4)cc3)nn2)cn1 [compound 312, 5-[1-[(1R)-1-[4-[5-(difluoromethyl)-1,3,4-oxadiazol-2-yl]phenyl]-2-pyrrolidin-1-ylethyl]triazol-4-yl]pyridin-2-amine] | 41 | > 1e+06 | – | – | – | –
16 | NC(=O)c1cccc(-c2nc(Cc3ccc(-c4nnc(C(F)F)o4)cc3)no2)c1 [compound 262, 3-(3-(4-(5-(difluoromethyl)-1,3,4-oxadiazol-2-yl)benzyl)-1,2,4-oxadiazol-5-yl)benzamide] | 488 | > 200000 | – | – | – | –
17 | O=C(Nc1cccc(-c2nnn(Cc3c(F)cc(-c4nnc(C(F)F)o4)cc3F)n2)c1)N1CCOCC1 [compound 98, N-(3-(2-(4-(5-(difluoromethyl)-1,3,4-oxadiazol-2-yl)-2,6-difluorobenzyl)-2H-tetrazol-5-yl)phenyl)morpholine-4-carboxamide] | 38 | > 200000 | – | – | – | –
18 | Nc1ccc(-c2cn(C(CN3CCCC3)c3ccc(-c4nnc(C(F)F)o4)cn3)nn2)cn1 (stereo not drawn) [Compd. 301, 5-(1-(1-(5-(5-(difluoromethyl)-1,3,4-oxadiazol-2-yl)pyridin-2-yl)-2-(pyrrolidin-1-yl)ethyl)-1H-1,2,3-triazol-4-yl)pyridin-2-amine] | 64 | > 200000 | – | – | – | –
